Assay results: patent US10021861B2, “Genetically modified non-human animals and methods relating to innate immune system response detection” (The Jackson Laboratory, priority 2013, dated 2018)
Marks after values point to notes of the source that are not given here.

Assays:
Format in all cases: in vivo
[1] = test system: mouse innate immune cells; experiment: Mouse serum cytokines by cytometric bead array in NSG-TLR4^null mice (unmanipulated or HSC-engrafted); conditions: in both NSG and NSG-TLR4^null mice, 100 μg IP, 24 hours
[2] = test system: mouse innate immune cells; experiment: CD40 and CD86 expression on mouse innate immune cells from spleen of NSG-TLR4^null mice (flow cytometry)
Method: (§1) (San Jose, Calif.), eBiosciences (San Diego, Calif.) or BioLegend, (San Diego, Calif.). […] Single-cell suspensions of bone marrow (BM) and spleen were prepared from engrafted mice, and whole blood was collected in heparin. Single cell suspensions of 1×10^6 cells in 50 μL or 100 μL of whole blood were washed with FACS buffer (PBS supplemented with 2% fetal bovine serum, (HyClone, Logan, Utah) and 0.02% sodium azide (Sigma, St. Louis, Mo.)) and then pre-incubated with rat anti-mouse FcR11b (clone 2.4G2, BD Biosciences) to block Fc binding. Specific antibodies were then added to the samples and incubated for 30 min at 4° C. Stained samples were then washed and fixed with 2% paraformaldehyde for cell suspensions or treated with BD FACS lysing solution for whole blood. At least 50,000 events were acquired on LSRII or FACSCalibur instruments (BD Biosciences). Data analysis was performed with FlowJo (Tree Star, Inc., Ashland, Oreg.) software. Ultra Pure lipopolysaccharide (LPS, E. coli 0111:B4 strain), and polyinosinic-polycytidylic (poly(I:C), high molecular weight, HMW) were purchased from Invivogen (San Diego, Calif.). The indicated mice were injected intraperitoneally (IP) with 100 μg of either LPS or poly(I:C). To confirm that NSG-TLR4^null mice are unable to respond to TLR4 agonists, NSG and NSG-TLR4^null mice were treated with LPS and the ability of innate immune cells to increase expression of phenotypic markers (Table I) and produce cytokines (FIG. 2) was evaluated.

[3] = test system: mouse innate immune cells; experiment: CD40 and CD86 expression on mouse innate immune cells from spleen of NSG mice (flow cytometry); conditions: 100 μg IP, 24 hours
Method: as §1

[4] = NSG-TLR4^null mice, 100 μg IP, 24 hours, spleen

polyinosinic-polycytidylic [poly(IC)] was tested, and the mouse cytokine response [1] was “similar”, the “CD40 Expression, CD11b+ Macrophage” value [2, 4] was 4168 ± 104 and the “CD40 Expression, CD11c+/CD11b+ DC” value [2, 4] was 5035 ± 3278^b. For the same substance, the “CD40 Expression, CD11c+/CD11b− DC” value [2, 4] was 16160 ± 3782^b, the “CD86 Expression, CD11b+ Macrophage” value [2, 4] was 77.77 ± 15.96 and the “CD86 Expression, CD11c+/CD11b+ DC” value [2, 4] was 635 ± 57.7^b. The “CD86 Expression, CD11c+/CD11b− DC” value [2, 4] was 1315 ± 82^b, the “induced increases in the expression of CD40 and CD86 on mouse innate immune cells” value ([2]; between NSG and NSG-TLR4^null mice) was “similar” and the “CD40 Expression, CD11b+ Macrophage” value [3] was 3909 ± 377. For the same substance, the “CD40 Expression, CD11c+/CD11b+ DC” value [3] was 6860 ± 1276^b, the “CD40 Expression, CD11c+/CD11b− DC” value [3] was 19935 ± 1020^b and the “CD86 Expression, CD11b+ Macrophage” value [3] was 68.27 ± 5.93. The “CD86 Expression, CD11c+/CD11b+ DC” value [3] was 540.3 ± 40^b and the “CD86 Expression, CD11c+/CD11b− DC” value [3] was 1111 ± 141^c.
